Data reported in patent US20150275254A1, “ENZYME LOADING, CELLULOSE HYDROLYSIS, AND INHIBITION OF CELLOBIOHYDROLASES USING LIQUID HOT WATER PRETREATMENT” (PURDUE RESEARCH FOUNDATION, priority 2014, published 2015).

What was measured:
[1] = system: Cellic Ctec2; test: Enzymatic hydrolysis of LHW pretreated hardwood (severity log Ro=12.51) at different hydrolysis conditions (FIG. 6); type: biochemical, Trichoderma reesei; conditions: 200 mM NaCl at pH 4.8; 5 FPU (8 mg) Ctec2/g glucan, 72 hrs
Procedure: In this work, the lignocellulosic substrate was enzymatically hydrolyzed in order to study how the non-productive adsorption affected the enzymatic hydrolysis efficiency. The glucose yield of LHW pretreated hardwood containing 57.9% glucan and 40.3% lignin was measured for a low enzyme loading amount of 5 FPU (8 mg) Ctec2/g glucan at given conditions (FIG. 6). […] This might be due to the decreased cellulase activity at pH 5.5 as shown in microcrystalline cellulose (Avicel) hydrolysis. The overall decrease in T. reesei cellulase cocktail (Ctec2) adsorption onto lignins at elevated pHs was in agreement with the results by Lou et al. (2013). The reduced nonproductive adsorption led to the enhanced glucose yield more than twofold when the dilute acid or sulfite pretreated softwood was hydrolyzed with higher amount (10 FPU/g glucan) of cellulase (Lou et al., 2013).

[2] = molecular target: β-glucosidase from T. reesei; conditions: cited from earlier work
[3] = molecular target: T1, β-glucosidase from A. niger (Aspergillus niger, UniProt A2RAL4); conditions: cited from earlier work
T1 sequence (A2RAL4 20-860): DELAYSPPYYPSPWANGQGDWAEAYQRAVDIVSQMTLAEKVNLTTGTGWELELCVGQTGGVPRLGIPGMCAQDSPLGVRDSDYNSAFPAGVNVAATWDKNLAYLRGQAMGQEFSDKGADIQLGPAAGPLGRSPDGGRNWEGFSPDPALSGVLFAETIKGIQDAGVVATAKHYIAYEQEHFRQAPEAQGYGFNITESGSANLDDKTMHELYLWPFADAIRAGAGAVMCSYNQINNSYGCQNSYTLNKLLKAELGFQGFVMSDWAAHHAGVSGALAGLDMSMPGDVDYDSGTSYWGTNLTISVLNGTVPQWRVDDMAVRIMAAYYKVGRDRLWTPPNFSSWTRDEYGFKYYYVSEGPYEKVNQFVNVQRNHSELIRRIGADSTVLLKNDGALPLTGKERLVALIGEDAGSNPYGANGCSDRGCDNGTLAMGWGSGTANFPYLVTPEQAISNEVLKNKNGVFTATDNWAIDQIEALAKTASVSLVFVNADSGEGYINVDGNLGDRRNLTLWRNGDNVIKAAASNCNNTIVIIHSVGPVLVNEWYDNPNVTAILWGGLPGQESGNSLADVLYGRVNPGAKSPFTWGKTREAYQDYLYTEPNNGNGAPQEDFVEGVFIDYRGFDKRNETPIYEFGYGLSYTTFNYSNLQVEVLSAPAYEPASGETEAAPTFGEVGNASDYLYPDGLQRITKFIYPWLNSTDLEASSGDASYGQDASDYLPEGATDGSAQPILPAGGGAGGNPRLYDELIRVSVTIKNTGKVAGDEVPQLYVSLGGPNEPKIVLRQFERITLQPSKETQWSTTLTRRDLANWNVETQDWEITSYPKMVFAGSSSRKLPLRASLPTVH

[4] = adapted from literature; cited from earlier work

Q: For `[Cl-].[Na+]` [NaCl], which “effect on glucose yield” value [1] is on record?
A: The value was “did not affect the glucose yield”.

Q: For `O=C(O)c1cc(O)c(O)c(O)c1` [gallic acid], which “k, deactivation rate constant” value [2] is on record?
A: The value was 0.046 h⁻¹.

Q: What about the “k, deactivation rate constant” value [3] of the same molecule?
A: The value was 0.006 h⁻¹.

Q: With `O=C(OC[C@H]1O[C@@H](OC(=O)c2cc(O)c(O)c(OC(=O)c3cc(O)c(O)c(O)c3)c2)[C@H](OC(=O)c2cc(O)c(O)c(OC(=O)c3cc(O)c(O)c(O)c3)c2)[C@@H](OC(=O)c2cc(O)c(O)c(OC(=O)c3cc(O)c(O)c(O)c3)c2)[C@@H]1OC(=O)c1cc(O)c(O)c(OC(=O)c2cc(O)c(O)c(O)c2)c1)c1cc(O)c(O)c(OC(=O)c2cc(O)c(O)c(O)c2)c1` [tannic acid] as the molecule, how does the “k, deactivation rate constant” value [2] read?
A: Its value is 0.068 h⁻¹.

Q: What about the “k, deactivation rate constant” value [3] of the same molecule?
A: The value was 0.045 h⁻¹.

B1: CBHI: T. reesei enzyme, gene cel7a, GH7 (protein, UniProt P62694 18-513, looked up)
Exoglucanase 1: QSACTLQSETHPPLTWQKCSSGGTCTQQTGSVVIDANWRWTHATNSSTNCYDGNTWSSTLCPDNETCAKNCCLDGAAYASTYGVTTSGNSLSIGFVTQSAQKNVGARLYLMASDTTYQEFTLLGNEFSFDVDVSQLPCGLNGALYFVSMDADGGVSKYPTNTAGAKYGTGYCDSQCPRDLKFINGQANVEGWEPSSNNANTGIGGHGSCCSEMDIWEANSISEALTPHPCTTVGQEICEGDGCGGTYSDNRYGGTCDPDGCDWNPYRLGNTSFYGPGSSFTLDTTKKLTVVTQFETSGAINRYYVQNGVTFQQPNAELGSYSGNELNDDYCTAEEAEFGGSSFSDKGGLTQFKKATSGGMVLVMSLWDDYYANMLWLDSTYPTNETSSTPGAVRGSCSTSSGVPAQVESQSPNAKVTFSNIKFGPIGSTGNPSGGNPPGGNRGTTTTRRPATTTGSSPGPTQSHYGQCGGIGYSGPTVCASGTTCQVLNPYYSQCL
Q: With B1 as the molecule, how does the “Experimental pI” value [4] read?
A: The value was “(3.6-3.9)”.

B2: EGII: T. reesei enzyme, gene cel5a, GH5 (protein, UniProt P07982 22-418, looked up)
Endoglucanase EG-II: QQTVWGQCGGIGWSGPTNCAPGSACSTLNPYYAQCIPGATTITTSTRPPSGPTTTTRATSTSSSTPPTSSGVRFAGVNIAGFDFGCTTDGTCVTSKVYPPLKNFTGSNNYPDGIGQMQHFVNEDGMTIFRLPVGWQYLVNNNLGGNLDSTSISKYDQLVQGCLSLGAYCIVDIHNYARWNGGIIGQGGPTNAQFTSLWSQLASKYASQSRVWFGIMNEPHDVNINTWAATVQEVVTAIRNAGATSQFISLPGNDWQSAGAFISDGSAAALSQVTNPDGSTTNLIFDVHKYLDSDNSGTHAECTTNNIDGAFSPLATWLRQNNRQAILTETGGGNVQSCIQDMCQQIQYLNQNSDVYLGYVGWGAGSFDSTYVLTETPTSSGNSWTDTSLVSSCLARK
Q: For B2, which “Experimental pI” value [4] is on record?
A: Its value is “(4.2-5.5)”.

B3: EGI: T. reesei enzyme, gene cel7b, GH7 (protein, UniProt P07981 23-459, looked up)
Endoglucanase EG-1: QQPGTSTPEVHPKLTTYKCTKSGGCVAQDTSVVLDWNYRWMHDANYNSCTVNGGVNTTLCPDEATCGKNCFIEGVDYAASGVTTSGSSLTMNQYMPSSSGGYSSVSPRLYLLDSDGEYVMLKLNGQELSFDVDLSALPCGENGSLYLSQMDENGGANQYNTAGANYGSGYCDAQCPVQTWRNGTLNTSHQGFCCNEMDILEGNSRANALTPHSCTATACDSAGCGFNPYGSGYKSYYGPGDTVDTSKTFTIITQFNTDNGSPSGNLVSITRKYQQNGVDIPSAQPGGDTISSCPSASAYGGLATMGKALSSGMVLVFSIWNDNSQYMNWLDSGNAGPCSSTEGNPSNILANNPNTHVVFSNIRWGDIGSTTNSTAPPPPPASSTTFSTTRRSSTTSSSPSCTQTHWGQCGGIGYSGCKTCTSGTTCQYSNDYYSQCL
Q: For B3, which “Experimental pI” value [4] is on record?
A: The value was “(3.9-4.5)”.

B4: CBHII: T. reesei enzyme, gene cel6a, GH6 (protein, UniProt P07987 25-471, looked up)
Exoglucanase 2: QACSSVWGQCGGQNWSGPTCCASGSTCVYSNDYYSQCLPGAASSSSSTRAASTTSRVSPTTSRSSSATPPPGSTTTRVPPVGSGTATYSGNPFVGVTPWANAYYASEVSSLAIPSLTGAMATAAAAVAKVPSFMWLDTLDKTPLMEQTLADIRTANKNGGNYAGQFVVYDLPDRDCAALASNGEYSIADGGVAKYKNYIDTIRQIVVEYSDIRTLLVIEPDSLANLVTNLGTPKCANAQSAYLECINYAVTQLNLPNVAMYLDAGHAGWLGWPANQDPAAQLFANVYKNASSPRALRGLATNVANYNGWNITSPPSYTQGNAVYNEKLYIHAIGPLLANHGWSNAFFITDQGRSGKQPTGQQQWGDWCNVIGTGFGIRPSANTGDSLLDSFVWVKPGGECDGTSDSSAPRFDSHCALPDALQPAPQAGAWFQAYFVQLLTNANPSFL
Q: With B4 as the molecule, how does the “Experimental pI” value [4] read?
A: Its value is “(5.2-5.9)”.
